The results in this text go back to patent US20220354835A1, “COMPOUNDS FOR DEGRADING TAU PROTEIN AGGREGATES AND USES THEREOF” (Aprinoia Therapeutics Limited, priority 2019, published 2022).

The term Kd denotes the concentration at which binding is half-saturated. Read a high Kd as weaker binding. By IC50 is commonly meant the concentration at which inhibition is half-maximal. A low value points to higher potency.

Test [1] has as its target T1, heparin-induced aggregated tau (aTau), full-length 2N4R human Tau (Homo sapiens, UniProt P10636).
T1 construct: transformed with a full-length 2N4R tau expression plasmid; made in house; host or cells: E. coli BL21
As to the kind of experiment: In vitro fluorometric aTau binding assay. The following applies: 0.04 μM aTau, serially diluted compound 10 to 0.00017 μM, 37° C. 1 hour, fluorescence. How it is done: (§1) (A) Expression and purification of human Tau: 1 mM IPTG (Sangon Biotech, Cat. No A100487) was used to induce production of tau by bacteria (BL21, Invitrogen, Cat. No C600003) transformed with a full-length 2N4R tau expression plasmid. After 3 hours, cell pellet was resuspended in lysis buffer (100 mM PIPES, 1 mM EGTA, 1 mM MgSO4, pH 6.8) and lysed by sonication followed by centrifugation (15,000 rpm, 15 min, 4° C.). The supernatant was then placed in a boiling water bath for 20 min, followed by centrifugation (15,000 rpm, 15 min, 4° C.). Supernatant was loaded onto a Q-Sepharose® Fast Flow column (GE healthcare, Cat. No 17-0510-01), the flow-through fraction was loaded onto an SP-Sepharose® Fast Flow column (GE healthcare, Cat. No 17-0729-01), and tau protein was eluted with elution buffer (100 mM PIPES, 1 M NaCl, 1 mM EGTA, 1 mM MgSO4, 0.2 M NaCl, pH 6.8). Collected fractions of tau-containing eluates were pooled, concentrated and dialyzed against HEPES buffer (25 mM HEPES, 0.1 mM EDTA, 0.5 mM DTT, 100 mM NaCl, pH 7.2) and stored at −80° C. in small aliquots until use. Protein concentration was determined by UV absorption.
(§2) (B) Preparation of heparin-induced aggregated tau (aTau): 2 μM of tau prepared in 30 mM Tris-HCl, pH 7.5 buffer was incubated in tube with 15 μM heparin (Sigma, Cat. No H3149) at 37° C. for 24 hours.
(D) In vitro fluorometric aTau binding assays: 2 μM aTau was diluted to 0.04 μM with 30 mM Tris-HCl (pH 6.8), and then incubated with serially diluted compound (three-fold serial dilutions, from 10 to 0.00017 μM) in a 96-well plate (Corning, Cat. No 3573) at 37° C. for 1 hour. Fluorescence intensity (excitation/emission=370/500 nm) of APN-0729 was read by microplate spectrometer (EnSpire 2300, PerkinElmer). Compound Kd values were calculated using the following equation: Y=Bmax* X (Kd+X), where X is the concentration of compound; Y is the fluorescence signal of (compound+aTau)−(compound+DMSO); and Bmax is the maximum signal.

For test [2], the target named is T1, heparin-induced aggregated tau (aTau), full-length 2N4R human Tau. The test can be described thus: PBB5 competition assay. The conditions noted are these: 0.12 μM aTau; for IC50: 0.1 μM PBB5, 37° C. 1 hour, PBB5 fluorescence 530/690 nm; for Emax: 0.1 μM PBB5, compound up to 10 μM, read-out: Competition Assay with PBB5: Bmax (%). Format: binding. How it is done: as §1, §2
(E) PBBS competition assay: 2 μM of aTau was diluted to 0.12 μM by […] (pH 6.8) and then incubated with 0.1 μM 2-(4-(2-(methylamino)pyridine-5-yl)-1,3-butadiene-1-yl)benzothiazole-6-ol (PBB5) and serially diluted compound (three-fold serial dilution, from 10 to 0.00017 μM) in a 96-well plate (Corning, Cat. No 3573) at 37° C. for 1 hour. Fluorescence intensity (excitation/emission=530/690 nm) of PBB5 was read by microplate spectrometer (EnSpire 2300, PerkinElmer). Percentage of competition was calculated using the following equation: (Max−well of compound alone)/(Max−Min)*100%, where Max=(Tau+PBB5) signals−(buffer+PBB5) signals; and Min=(buffer+PBB5) signals−(buffer+PBB5) signals.
The IC50 value of each compound was calculated with GraphPad Prism software using the “4 Parameter Logistic Model or Sigmoidal Dose-Response Model”:
Y=Bottom+(Top−Bottom)/(1+(IC50/×)^HillSlope)

In test [3] the target is T2, Tau aggregates in P301L-Tau-FL-GFP HEK293 cells (Homo sapiens, UniProt P10636, P618L).
T2 construct: express full-length human tau T40 (2N4R) carrying the P301L mutation with a GFP tag; expressed in transfected cells
The test can be described thus: Tau degradation assay (APNmAb005 ELISA-based Tau aggregation assay). It counts as cell-based. The following applies: 1 μM of compound, 24 hours, P301L-Tau-FL-GFP HEK293 cells seeded with rTg4510 brain lysate; read-out: Activity (reduction of tau aggregates). How it is done: (A). Cell-based model of Tau inclusion formation: Six month old rTg4510 mouse brain lysates were used as the source of tau seeds, prepared as described in Example 26 above. P301L-Tau-FL-GFP HEK293 cells represent HEK293 cells express full-length human tau T40 (2N4R) carrying the P301L mutation with a GFP tag (P301L-Tau-FL-GFP). 1×10^6 of P301L-Tau-FL-GFP HEK293 cells were cultured on a 6-well plate in culture medium containing DMEM/F-12 (Gibco) supplemented with 10% fetal bovine serum (FBS) (Gibco), 1% Penicillin-Streptomycin (Gibco) and 0.5 mg/ml geneticin (Thermo Fisher Scientific) for 24 hours to reach 70-90% confluency, indicating the cells were ready for transfection. 50 μg of 6-month-old rTg4510 mouse brain lysate was diluted in 400 μL of serum free medium and mixed with 16 μL of lipofectamine 3000 reagent (Thermo Fisher Scientific) diluted in 400 μl of serum free medium. A solution mixture of rTg4510 brain lysate and lipofectamine 3000 was incubated at room temperature for 25 min. The culture media were removed, and then a solution mixture of rTg4510 lysate and lipofectamine 3000 was added to the cells for transfection. The solution mixture was incubated at room temperature for five hours, followed by medium change to 10% fetal bovine serum (FBS). After two-day incubation, Tau aggregates (Tau spots) were induced and images were acquired by ImageXpress Micro Confocal high-content imaging system (Molecular Devices) as described in Example 52 above. Analysis was performed by two customized modules in MetaXpress software (Molecular Devices) for aggregated tau analysis. Output included cell numbers, numbers of tau spots, average intensity of tau spots, and average size of tau spots.
(B). Compound treatment: 100 μL of 3×10^4 cells comprising Tau aggregates, prepared as described above in step (A), were plated on a 96-well plate coated with poly-D-lysine (BD Biosciences) and cultured for 24 hours. Compounds to be tested were dissolved in culture medium containing 0.1% DMSO. Each of test compounds in the concentration of 1, 0.2 and 0.04 μM was added to the cells comprising Tau aggregates and incubated at 37° C. for 24 hours. After that, culture medium was removed, cells were washed with PBS solution and then lysed using 30 μL of lysis buffer (PBS containing 0.3% Triton X-100 and 400 mM NaCl) for one hour at 4° C., and then cell lysate was diluted by 170 μl of PBS containing 400 mM NaCl. Cell lysate was filtrated by a […] filtration plate (Pall) and applied for Tau aggregation assay.
(C). Control cell lysate: control cell lysate was collected from non-seeded cells.
(D). ELISA-based Tau aggregation assay: APNmAb005 ELISA kit for Tau aggregation assay was designed and developed to detect abnormal tau aggregates in buffered solution or cell lysate by using anti-Tau APNmab005 as capture and detection antibody. This antibody is a highly specific antibody bound to human tau aggregates accumulated in mammalian cells. APNmAb005 is recited in PCT Patent Application No. PCT/M2020/057415, filed Aug. 5, 2020, which is incorporated herein by reference.
0.15 μg of APNmAb005 in 100 mM sodium carbonate buffer (pH 9.6) was coated on a high-binding polystyrene 96-well microplate (Greiner Bio-One) at 4° C. overnight. The microplate was washed with PBS followed by treatment with Intercept (PBS) blocking buffer (LI-COR) at room temperature for 2 hours. After that, the microplate was washed with PBS, and then the cell lysate with compound treatment, prepared as described above in step (C), was added into each well of the microplate and incubated at room temperature for 2 hours. The microplate was washed with PBS and then incubated with HRP-conjugated secondary antibody APNmAb005 at room temperature for 3 hours. HRP-conjugated secondary antibody APNmAb005 was prepared using HRP conjugation kit (Abcam,ab102890). The microplate was then washed with PBS and incubated with 100 μL of horseradish peroxidase (HRP) substrate at room temperature. […]
Background: In an ELISA, binding on a coated surface is turned into a signal by an enzyme label.

Structures are written as SMILES.

T1 sequence (P10636 1-441 isoform P10636-8): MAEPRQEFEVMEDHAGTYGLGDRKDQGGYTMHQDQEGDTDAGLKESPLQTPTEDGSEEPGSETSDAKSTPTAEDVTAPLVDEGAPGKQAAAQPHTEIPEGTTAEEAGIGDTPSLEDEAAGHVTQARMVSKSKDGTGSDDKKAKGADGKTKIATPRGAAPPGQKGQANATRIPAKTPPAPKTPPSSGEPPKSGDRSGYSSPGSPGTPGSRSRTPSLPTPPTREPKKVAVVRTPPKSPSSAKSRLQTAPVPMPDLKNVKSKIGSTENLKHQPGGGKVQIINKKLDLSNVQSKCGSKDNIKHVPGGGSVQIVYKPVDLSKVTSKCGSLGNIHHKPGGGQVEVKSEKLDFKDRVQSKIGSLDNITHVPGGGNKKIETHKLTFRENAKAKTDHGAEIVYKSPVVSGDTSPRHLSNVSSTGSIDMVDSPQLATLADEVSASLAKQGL
T2 sequence (P10636 1-441 isoform P10636-8 P301L): as the sequence (P10636 1-441 isoform P10636-8) above, with P301L counted along it

In the case of `CN(C)c1ccc(-c2ccc(-c3nc4ccc(NCCOCCOCCOCCOCCOCCOc5ccc6c(c5)C(=O)N(C5CCC(=O)NC5=O)C6=O)cc4s3)cc2)cn1` (centres unmarked) [Compound 159985, 2-[2,6-bis(oxo)piperidin-3-yl]-5-[2-[2-[2-[2-[2-[2-[[2-[4-[6-(dimethylamino)-pyridin-3-yl]phenyl]-1,3-benzothiazol-6-yl]amino]ethoxy]ethoxy]ethoxy]ethoxy]ethoxy]-ethoxy]isoindole-1,3-dione], the Kd in test [1] worked out at 100 nM. In test [2], the IC50 amounted to 320 nM and the Emax is 71%. In addition, the inhibition at 1 µM in test [3] is < 10%.
In the case of `CN(C)c1ccc(-c2ccc(-c3cn4cc(OCCOCCOCCOCCOCCOCCOc5ccc6c(c5)C(=O)N(C5CCC(=O)NC5=O)C6=O)ccc4n3)cc2)c(F)n1` (centres unmarked) [Compound 160744, 2-[2,6-bis(oxo)piperidin-3-yl]-5-[2-[2-[2-[2-[2-[2-[2-[4-[6-(dimethyl-amino)-2-fluoro-pyridin-3-yl]phenyl]imidazo[1,2-a]pyridin-6-yl]oxyethoxy]ethoxy]ethoxy]-ethoxy]ethoxy]ethoxy]isoindole-1,3-dione], in test [1], the Kd came out at 150 nM. Moreover, in test [2], the IC50 was determined as 5960 nM and the Emax amounted to 113%. Besides, in test [3], the inhibition at 1 µM was 10 to 20%.
On to `CN(C)c1ccc(-c2ccc(-c3nc4ccc(NCCOCCOc5ccc6c(c5)C(=O)N(C5CCC(=O)NC5=O)C6=O)cc4s3)cc2)cn1` (centres unmarked) [Compound 160219, 2-[2,6-bis(oxo)piperidin-3-yl]-5-[2-[2-[[2-[4-[6-(dimethylamino)pyridin-3-yl]phenyl]-1,3-benzothiazol-6-yl]amino]ethoxy]ethoxy]isoindole-1,3-dione], for which, in test [1], the Kd amounted to 110 nM. In addition, in test [2], the IC50 worked out at 150 nM and the Emax is 69%. Besides, the inhibition at 1 µM in test [3] is < 10%.
As to `CN(C)c1ccc2nc(-c3ccc(-c4ccc(NCCOCCOCCOCCOCCOCCOc5ccc6c(c5)C(=O)N(C5CCC(=O)NC5=O)C6=O)nc4)cc3)sc2c1` (centres unmarked) [Compound 160275, 2-[2,6-bis(oxo)piperidin-3-yl]-5-[2-[2-[2-[2-[2-[2-[[5-[4-[6-(dimethylamino)-1,3-benzothiazol-2-yl]phenyl]pyridin-2-yl]amino]ethoxy]ethoxy]ethoxy]ethoxy]ethoxy]ethoxy]isoindole-1,3-dione], the Kd in test [1] amounted to 230 nM. For the same molecule, in test [2], the IC50 was determined as 1290 nM and the Emax was 96%.
`CN(C)c1ccc(-c2ccc(-c3nc4ccc(NCCOCCOCCOCCOCCOCCOc5ccc6c(c5)CN(C5CCC(=O)NC5=O)C6=O)cc4s3)cc2)cn1` (centres unmarked) [Compound 160273, 3-[6-[2-[2-[2-[2-[2-[2-[[2-[4-[6-(dimethylamino)pyridin-3-yl]phenyl]-1,3-benzothiazol-6-yl]amino]ethoxy]ethoxy]ethoxy]ethoxy]ethoxy]ethoxy]-3-oxidanylidene-1H-isoindol-2-yl]piperidine-2,6-dione]: the Kd in test [1] is 470 nM. In test [2], the IC50 was 270 nM and the Emax was found to be 59%. Besides, in test [3], the inhibition at 1 µM is < 10%.
For `CN(C)c1ccc2nc(-c3ccc(-c4ccc(NCCOCCOCCOCCOCCOCCOc5ccc6c(c5)CN(C5CCC(=O)NC5=O)C6=O)nc4)cc3)sc2c1` (centres unmarked) [Compound 160383, 3-[6-[2-[2-[2-[2-[2-[2-[[5-[4-[6-(dimethylamino)-1,3-benzothiazol-2-yl]-phenyl]pyridin-2-yl]amino]ethoxy]ethoxy]ethoxy]ethoxy]-ethoxy]ethoxy]-3-oxo-1H-isoindol-2-yl]piperidine-2,6-dione], in test [1], the Kd stood at 550 nM. In addition, in test [2], the IC50 is 270 nM and the Emax worked out at 80%. Moreover, the inhibition at 1 µM in test [3] is < 10%.
